Reference: US20110091875A1, “THREE-COMPONENT GENE EXPRESSION REPORTING SYSTEM FOR MAMMALIAN CELLS AND APPLICATIONS OF THE SAME” (National Chung Cheng University, priority 2009, published 2011)

Tests used:
Assay type in all cases: cell-based, human
SC6 cells = assay: Growth of SC6 cells in medium with 5-aza-2′-deoxycytidine (cytotoxicity); details: screening medium with 25 μM 5-aza-2′-deoxycytidine
Protocol: Transfection of SC6 cells with me_Trip10 DNA,” of the above Example 4, were plated into each well of 6-well plates (1×10^4 cells/2 mL screening medium/well), followed by cultivation overnight in an incubator (37° C., 95% O2/5% CO2) to permit cell attachment. 10 mM 5-aza-2′-deoxycytidine (dissolved in DMSO) was subsequently added into each well to reach a final concentration of 25 μM (Day 0). Thereafter, medium changes were performed every two days with fresh screening medium supplemented with 25 μM 5-aza-2′-deoxycytidine. From the second time of medium change (Day 4), the screening medium was further supplemented with 10 ng/mL 17β-estradiol. Expression of EGFP in the SC6 cells was observed using an inverted fluorescence microscope prior to making the medium change, and photographs were recorded using a digital camera connected to the inverted fluorescence microscope.

Trip10 promoter [1] = assay: Reactivation of inactivated Trip10 promoter by 5-aza-2′-deoxycytidine and 17β-estradiol (EGFP in SC6 cells); details: me_Trip10 DNA transfected SC6 cells
Protocol: The obtained photographs were analyzed via an image analyzing software Scion Image. Briefly, the photographs were divided into several regions by the Scion Image software, in which the EGFP signal in a region visually observed as a black region was defined as 0, and the EGFP signal in a region that was visually observed to have the strongest fluorescence was defined as 255. Thereafter, the EGFP intensity was obtained by summing up the EGFP signals in all the regions, followed by dividing by the total area of said regions. […] The transfection-treated SC6 cells, which were harvested two days after the third time of transfection according to the procedures set forth in the section, entitled “2. […] From the second time of medium change (Day 4), the screening medium was further supplemented with 10 ng/mL 17β-estradiol. Expression of EGFP in the SC6 cells was observed using an inverted fluorescence microscope prior to making the medium change, and photographs were recorded using a digital camera connected to the inverted fluorescence microscope.

Trip10 promoter [2] = assay: Effect of 17β-estradiol upon the Trip10 promoter against DNA methylation (EGFP in SC6 cells); details: 10 ng/mL 17β-estradiol before; for EGFP intensity compared to 0 hr: during and after transfection with me_Trip10 DNA
Protocol: The obtained photographs were analyzed via an image analyzing software Scion Image. Briefly, the photographs were divided into several regions by the Scion Image software, in which the EGFP signal in a region visually observed as a black region was defined as 0, and the EGFP signal in a region that was visually observed to have the strongest fluorescence was defined as 255. Thereafter, the EGFP intensity was obtained by summing up the EGFP signals in all the regions, followed by dividing by the total area of said regions. Finally, the EGFP intensity at 0 hr was defined as 100%, and the EFGP intensity percentages of the EGFP intensities at other time points relative to that at 0 hr were calculated.
First, a proper amount of 17β-estradiol was dissolved in alcohol to form a stock solution having a concentration of 10 mg/mL. The SC6 cells as obtained in the above Example 3 were plated into each well of 6-well plates (1×10^5 cells/2 mL screening medium/well), followed by cultivation overnight in an incubator (37° C., […]/5% CO2) to permit cell attachment. […] After cultivation at 37° C. for 24 hours, the SC6 cells were transfected with 0.4 μg of single-stranded me_Trip10 DNA according to the transfection treatment as described in the section, entitled “2. Transfection of SC6 cells with me_Trip10 DNA” of the above Example 4, except that the growth medium was supplemented with 10 ng/mL 17β-estradiol and was added into each well until a final volume of 1 mL was reached.
The first time at which the liquid in each well was added to reach 1 mL was defined as Hour 0. Expression of EGFP in the SC6 cells was observed using an inverted fluorescence microscope at 0 hr, 24 hrs, 72 hrs and 120 hrs, respectively, and photographs were recorded using a digital camera connected to the inverted fluorescence microscope.

Structure (SMILES) | cytotoxicity (SC6 cells) | EGFP intensity compared to Day 2 (100%) (Trip10 promoter [1]; Day 4, 25 μM 5-aza-2′-deoxycytidine alone) | reactivation of the Trip10 promoter / reversal of its methylation (Trip10 promoter [1]) | methylation of Trip10 promoter induced by me_Trip10 DNA (Trip10 promoter [2]; during and after transfection) | EGFP intensity compared to 0 hr (Trip10 promoter [2]; 72 hrs) | EGFP intensity compared to 0 hr (Trip10 promoter [2]; other time points (24 hrs, 120 hrs))
Nc1ncn([C@H]2C[C@H](O)[C@@H](CO)O2)c(=O)n1 [5-aza-2′-deoxycytidine] | no cytotoxicity | over 100% | insufficient to reactivate the Trip10 promoter | – | – | –
C[C@]12CC[C@@H]3c4ccc(O)cc4CC[C@H]3[C@@H]1CC[C@@H]2O [17β-estradiol] | – | – | – | could be prevented from methylation | about 150% | around 100%
